Test results: US20190133998A1, “TREATMENT OF TUMORS WITH INHIBITORS OF CXCL12 SIGNALING AND SUBT[…] OF CHEMOTHERAPEUTIC AGENTS” (THE GENERAL HOSPITAL CORPORATION, priority 2016, published 2019)
Values joined by “and” are separate entries in the source; they are usually repeats but may differ in a detail not shown here. Equal values may be shown once. Read-outs that look alike come from different tables or passages of the source. Values belong to the molecule of their own block, whether it stands above or below them.

How the values were obtained:
TOV-112D cells [1] = test system: TOV-112D cells
Description: (§1) Sequential Delivery of Small Molecules and Chemotherapy: ID8 cells were exposed to AMD3100 in a 6 well plate (2.5×10^5 cells/well) for 72 hr. Cells were then washed and counted. Cell viability was checked by propidium iodide. For each condition, 500 cells per well of viable ID8 cells were then seeded into a 96 well black assay plate. ID8 cells were then incubated in DMEM containing a carrier, AMD3100 10 μM, TAXOL 0.005 μM, or both for another 72 hr. For TOV-112D cells, initial 72 hr incubation was with AMD3100 5 μM, followed by 96 hr incubation in media containing AMD3100 5 μM, TAXOL 1 nM, or both. At the conclusion of the experiment, plates were washed and dsDNA was measured via CyQuant assay.

ID8 cells [2] = test system: ID8 cells
Description: as §1

AE17 = experiment: Survival in intraperitoneal malignant mesothelioma model, AE17; format: in vivo; conditions: C57BL/6 mice, IP once a week for four weeks, AMD3100 1 mg/kg, VIC-008 20 μg per mouse
Description: (§2) Intraperitoneal malignant mesothelioma (MM) models were established in immunocompetent C57BL/6 mice using syngeneic 40L and AE17 cell lines. Here, we tested the effect of AMD3100 and VIC-008, alone or in combination, on mouse survival in the mesothelioma-bearing mice. […], alone, was administered at 20 μg per mouse intraperitoneally (IP) once a week for four successive weeks. AMD3100 was administered at 1 mg/kg of mouse body weight via IP injection once a week for four successive weeks.

ID8-Luc cells = conditions: C57/B6 mice, 1 mg/kg IP every 72 hours (subtherapeutic)
Description: Six- to eight-week old C57/B6 mice were injected with 5e6 ID8-Luc cells. The presence of the tumor was confirmed by luciferase imaging. The tumor bearing mice were treated with 1 mg/kg AMD-3100 by intraperitoneal (IP) injection every 72 hours or with TAXOL® (10 mg/ml).
Six- to eight-week old C57/B16 mice were injected with 5e6 ID8-Luc cells. The presence of the tumor was confirmed by luciferase imaging. The tumor bearing mice were treated with 1 mg/kg AMD-3100 by IP injection every 72 hours. In the combination treatment, the AMD3100 (1 mg/kg) and ruxolitinib (30 mg/kg) were administered concurrently but not simultaneously (i.e., administration was staggered).

[3] = test system: TOV-112D human ovarian cancer cells; experiment: cells
Description: (§3) Drug Titrations: TAXOL was titered to determine the concentrations used in combination with AMD3100. Cells were cultured in 96-well black assay plates with optically clear bottoms (500 and 2500 cells per well were tested), including a standard curve plate. ID8 cells were then exposed to increasing concentrations of paclitaxel (1, 0.5, 0.15, 0.05, 0.015, and 0.005 μM), and TOV cells were exposed to 15, 5, and 1 nM Taxol for 48 or 96 hr. Proliferation was measured by measuring the amount of dsDNA using CyQuant reagent and read on a Perkin Elmer Envision 2103. AMD3100 (50, 25, 10, 5, 2.5, and 1 μM) was titered in the same manner. Each condition was done in triplicate. Drugs were not replenished during any of the experiments. Data was analyzed in Prism 7.
Simultaneous Delivery of Small Molecules and Chemotherapy: To determine the effect of AMD3100 alone or in combination with TAXOL, cell proliferation was measured by seeding 2500 TOV cells and 500 ID8 cell per well in a clear bottom 96-well black assay plates. AMD3100 (final concentrations: 10 μM for ID8 and 2.5 μM for TOV) and Paclitaxel (final concentrations: 15 and 5 nM for ID8 cells and 5 and 1 nM for TOV cells) were mixed with DMEM. 100 μL of the mixture was added to the cells. Each condition was done in triplicate. […] Standard curve plates were washed the same day the experiment was done. Plates were stored at −80° C. after washing and proliferation rate was measured then by CyQuant assay.

CXCR7 [4] = target: CXCR7 (Mus musculus, UniProt P56485); conditions: ID8 cells
Description: (§4) CXCR4, CXCR7, and CXCL12 expression in ovarian cancer cells: ID8 or TOV-112D cells were plated at 750,000 cells/well in 6-well plates. Conditions were WT, WT+AMD3100 (10 μM for ID8/5 μM for TOV-112D, MedChemExpress HY-50912 and AbCam ab1207180) 16 hrs, and WT+AMD3100 4 hrs. 2× drug stocks were made in complete DMEM, final volume per well was 2 mL. GolgiPlug (BD Pharmingen) was added to all wells 3 hrs prior to harvesting according to manufacturer's protocol. CXCL12, CXCR4, and CXCR7 expression was measured by Flow Cytometry. Antibodies: anti-h/mCXCL12/SDF-1 APC (IC350A, RandD Systems), anti-mCXCR4/CD184 PE (551966, BD Bioscience), anti-hCXCR4/CD184 PE (306506, BioLegend), anti-h/mCXCR7 PE-Cy7 (331115, BioLegend).
(§5) Flow Cytometry: Cells were harvested using enzyme free dissociation buffer (Thermo Fisher Scientific 13151014) and counted using Trypan Blue viability dye (Corning). Equal numbers of cells were labeled with antibody for surface markers. Thereafter cells were stained for viability and where needed with secondary antibody. […] All incubation steps were performed at 4° C. on a rocker in the dark. Cells were washed 2× before analysis in cell staining buffer consisting of PBS containing 0.5% BSA, 0.02% Sodium Azide, and 2 mM EDTA. Analysis of samples in duplicate was done with a BD Fortessa collecting a minimum of 10,000 events per sample and using FlowJo software.

CXCR7 [5] = target: CXCR7 (Homo sapiens, UniProt P25106); conditions: TOV-112D cells
Description: as §4, §5

CXCR4 [6] = target: CXCR4 (Homo sapiens, UniProt P61073); conditions: TOV-112D cells; for CXCR4 reduced by: AMD3100 5 μM, normalized
Description: as §4, §5

CXCL12 = conditions: for CXCL12 expression reduced by: 4 or 18 hours, normalized; for overall expression of CXCL12, significance of change: AMD3100 for either 4 or 18 hours
Description: as §4, §5

CXCR4 [7] = target: CXCR4 (Mus musculus, UniProt P70658); conditions: ID8 cells; for expression of CXCR4 reduced by: AMD3100 10 μM, normalized, negative control 0, untreated 100
TOV-112D cells [8] = experiment: Soft-agar colony formation, TOV-112D; format: cell-based, human
Description: (§6) ID8 and TOV Colony Formation in The Presence of Small Molecules and/or Chemotherapy: Bottom Layer Hard Agar: 2×DMEM and 0.8% agar stock was prepared and adjusted to 42° C. in a water bath for 30 min. The agar and 2×DMEM were mixed (1:2). 500 μL of the mixture was then added to each well of a 24 well plate, and the plate was rocked to distribute evenly and allowed to solidify at room temperature in a tissue culture hood. Upper Layer Soft Agar: 0.6% agar stock was prepared adjusted to 42° C. in a water bath for 30 min. During this time, ID8 cells were trypsinized, and 40,000 cells per mL suspension in 1×DMEM was made. Cell suspensions were then mixed with soft agar stock (1:2) and 500 μL of the mixture was then added to each well. Each condition was in triplicate.
[…] 100 μL of each drug was added to the relative wells in triplicate. Plates were then incubated in a humidified incubator with […] for 20-30 days. At the end of the experiment, each well was stained with 0.005% crystal violet in 15% ethanol (140 μL per well) and plates were incubated again for several hours then photos were taken using a microscope. ID8 Colonies equal or bigger […] and TOV colonies equal or bigger than […] were counted using Image J software.

ID8 cells [9] = experiment: Soft-agar colony formation, ID8; format: cell-based, murine
Description: as §6
Drug-DMEM stocks were made to achieve the proper concentrations in 1.1 mL, the total volume of each well: AMD3100 (10 μM and 1 μM for ID8 cells, 5 μM and 2.5 μM for TOV cells) and TAXOL (0.015 μM and 0.005 μM). 100 μL of each drug was added to the relative wells in triplicate. Plates were then incubated in a humidified incubator with […] for 20-30 days. At the end of the experiment, each well was stained with 0.005% crystal violet in 15% ethanol (140 μL per well) and plates were incubated again for several hours then photos were taken using a microscope. ID8 Colonies equal or bigger […] and TOV colonies equal or bigger than […] were counted using Image J software.

[10] = test system: ID8 murine ovarian cancer cells; experiment: cells
Description: as §3
Simultaneous Delivery of Small Molecules and Chemotherapy: To determine the effect of AMD3100 alone or in combination with TAXOL, cell proliferation was measured by seeding 2500 TOV cells and 500 ID8 cell per well in a clear bottom 96-well black assay plates. AMD3100 (final concentrations: 10 μM for ID8 and 2.5 μM for TOV) and Paclitaxel (final concentrations: 15 and 5 nM for ID8 cells and 5 and 1 nM for TOV cells) were mixed with DMEM. 100 μL of the mixture was added to the cells. Each condition was done in triplicate. Plates were incubated at 37° C. with 5% CO2 for 72 hr (ID8) and 96 hr (TOV-112D). Standard curve plates were washed the same day the experiment was done. Plates were stored at −80° C. after washing and proliferation rate was measured then by CyQuant assay.

40L = experiment: Survival in intraperitoneal malignant mesothelioma model, 40L; format: in vivo; conditions: 40L model, C57BL/6 mice; IP once a week for four weeks; AMD3100 1 mg/kg, VIC-008 20 μg per mouse
Description: as §2

human ovarian cancer = conditions: reported; read-out: IC50 of paclitaxel in human ovarian cancer; cited from earlier work
[11] = AMD3100 for either 4 or 18 hours

CXCR7 (Homo sapiens, UniProt P25106), sequence (P25106 whole entry): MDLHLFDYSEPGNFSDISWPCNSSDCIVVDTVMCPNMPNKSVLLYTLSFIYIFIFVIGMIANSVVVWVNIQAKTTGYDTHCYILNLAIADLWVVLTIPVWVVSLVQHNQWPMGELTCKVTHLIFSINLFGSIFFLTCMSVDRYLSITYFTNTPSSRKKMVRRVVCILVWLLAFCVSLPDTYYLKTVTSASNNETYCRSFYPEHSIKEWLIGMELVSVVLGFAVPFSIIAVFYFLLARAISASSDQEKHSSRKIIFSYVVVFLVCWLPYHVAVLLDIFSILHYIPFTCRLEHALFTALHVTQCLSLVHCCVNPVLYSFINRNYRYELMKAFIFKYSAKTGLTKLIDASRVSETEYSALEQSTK
CXCR4 (Mus musculus, UniProt P70658), sequence (P70658 whole entry): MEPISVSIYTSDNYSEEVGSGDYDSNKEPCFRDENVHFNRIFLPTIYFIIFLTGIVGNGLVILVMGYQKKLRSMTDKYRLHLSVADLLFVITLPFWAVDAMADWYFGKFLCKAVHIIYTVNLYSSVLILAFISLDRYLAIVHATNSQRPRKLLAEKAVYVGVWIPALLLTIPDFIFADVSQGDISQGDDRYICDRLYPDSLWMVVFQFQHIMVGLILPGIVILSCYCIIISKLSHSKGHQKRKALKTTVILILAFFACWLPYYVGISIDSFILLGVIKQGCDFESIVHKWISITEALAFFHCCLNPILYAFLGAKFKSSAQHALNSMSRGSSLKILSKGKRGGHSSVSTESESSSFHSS
CXCR4 (Homo sapiens, UniProt P61073), sequence (P61073 whole entry): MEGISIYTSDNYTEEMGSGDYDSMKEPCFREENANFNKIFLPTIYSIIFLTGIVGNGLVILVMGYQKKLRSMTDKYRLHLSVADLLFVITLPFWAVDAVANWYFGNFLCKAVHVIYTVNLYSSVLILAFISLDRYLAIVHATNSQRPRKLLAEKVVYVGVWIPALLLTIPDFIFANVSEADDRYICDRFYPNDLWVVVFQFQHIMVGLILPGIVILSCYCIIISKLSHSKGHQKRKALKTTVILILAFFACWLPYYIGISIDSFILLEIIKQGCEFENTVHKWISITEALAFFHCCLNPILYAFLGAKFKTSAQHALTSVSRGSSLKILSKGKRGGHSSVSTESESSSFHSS
CXCR7 (Mus musculus, UniProt P56485), sequence (P56485 whole entry): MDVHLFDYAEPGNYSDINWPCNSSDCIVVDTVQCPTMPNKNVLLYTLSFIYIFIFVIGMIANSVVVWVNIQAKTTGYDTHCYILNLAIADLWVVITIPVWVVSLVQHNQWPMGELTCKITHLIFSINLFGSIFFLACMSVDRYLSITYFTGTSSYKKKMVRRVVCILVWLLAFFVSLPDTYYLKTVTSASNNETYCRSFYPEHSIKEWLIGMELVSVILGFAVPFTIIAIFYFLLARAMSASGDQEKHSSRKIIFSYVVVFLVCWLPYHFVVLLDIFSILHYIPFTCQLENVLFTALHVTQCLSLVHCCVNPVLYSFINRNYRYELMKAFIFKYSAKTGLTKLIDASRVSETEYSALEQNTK

Molecule: Plerixafor octahydrochioride [AMD3100]
- sensitization of cells by AMD3100 pre-treatment (TOV-112D cells [1]): did not significantly sensitize
- proliferation reduced by (TOV-112D cells [1]; AMD3100 5 μM 72 hr, then re-plated in AMD3100 96 hrs): 79.5%
- proliferation reduced by (TOV-112D cells [1]; AMD3100 5 μM 72 hr, then re-plated in control media 96 hrs): 49%
- proliferation reduced by (TOV-112D cells [1]; control media, then AMD3100 5 μM 96 hr): 51%
- sensitization of cells by AMD3100 pre-treatment (TOV-112D cells [1]; listed as AMD-3100): significantly sensitized
- proliferated more than untreated cells (ID8 cells [2]; ID8, no pre-treatment, re-plated in AMD3100 10 μM media 72 hr, not significant): 22%
- proliferation reduced by, vs untreated control cells (ID8 cells [2]; ID8, pre-treated with AMD3100 72 hr, reseeded in AMD3100 10 μM 72 hr): 48%
- increased growth (ID8 cells [2]; ID8, treated with AMD3100 and then incubated without drug): 22%
- sensitization of cells to subsequent TAXOL by AMD3100 pre-treatment (ID8 cells [2]; ID8, vs untreated control cells then incubated with TAXOL): did not significantly sensitize
- animal survival compared to saline control (AE17): modest benefit to survival
- survival of the tumor bearing mice (ID8-Luc cells): extends the survival
- limited cell growth by ([3]; TOV-112D cells, AMD3100 2.5 μM alone): 24.5%
- CXCR7 expression increased by (CXCR7 [4]; AMD3100 10 μM, 4 or 18 hours, normalized): 6%-11
- surface expression of CXCR7, significance of change (CXCR7 [4]; [11]): did not significantly alter
- CXCR7 expression (CXCR7 [5]; AMD3100 5 μM, 18 hours, normalized): returned to basal levels
- CXCR7 expression increased by (CXCR7 [5]; AMD3100 5 μM, after 4 hours, normalized): 20%
- surface expression of CXCR7, significance of change (CXCR7 [5]; [11]): did not significantly alter
- CXCR4 reduced by (CXCR4 [6]; 4 hours): 13%
- CXCR4 reduced by (CXCR4 [6]; 18 hours): 4%
- surface expression of CXCR4, significance of change (CXCR4 [6]; [11]): did not significantly alter
- CXCL12 expression reduced by (CXCL12; ID8 cells, AMD3100 10 μM): 9-10%
- overall expression of CXCL12, significance of change (CXCL12; ID8 cells): did not significantly alter
- CXCL12 expression reduced by (CXCL12; TOV-112D cells, AMD3100 5 μM): 5-7%
- overall expression of CXCL12, significance of change (CXCL12; TOV-112D cells): did not significantly alter
- expression of CXCR4 reduced by (CXCR4 [7]; 4 hours): 24.5%
- expression of CXCR4 reduced by (CXCR4 [7]; 18 hours): 23.5%
- surface expression of CXCR4, significance of change (CXCR4 [7]; [11]): did not significantly alter
- colony formation (TOV-112D cells [8]; TOV-112D, AMD3100 2.5 μM): did not reduce colony formation
- decreased colony formation by (ID8 cells [9]; ID8, AMD3100 1 M (so in the source)): 16%
- decreased colony formation by (ID8 cells [9]; ID8, AMD3100 10 M (so in the source)): 44%
- ID8 cell growth inhibition ([10]; AMD3100 10 μM alone, 72 hours): did not significantly inhibit
- animal survival compared to saline control (40L): modest benefit to survival

- IC50 ([3]; Homo sapiens, TOV112D, read-out: IC50, human ovarian cancer cells (TOV)): 2.5 nM
- IC50 ([10]; Mus musculus, ID8, 72 h, read-out: IC50, ID8 cell proliferation): 5 nM
- IC50 ([10]; Mus musculus, read-out: IC50, ID8 murine ovarian cancer cells): 5 nM
Molecule: CC(=O)O[C@H]1C(=O)[C@@]2(C)[C@H]([C@H](OC(=O)c3ccccc3)[C@]3(O)C[C@H](OC(=O)[C@H](O)[C@@H](NC(=O)c4ccccc4)c4ccccc4)C(C)=C1C3(C)C)[C@]1(OC(C)=O)CO[C@@H]1C[C@@H]2O [TAXOL, Paclitaxel]
- proliferation reduced by (TOV-112D cells [1]; control media, then TAXOL 1 nM 96 hr): 24%
- cell proliferation reduced by (ID8 cells [2]; ID8, no AMD3100 pre-treatment, re-plated in TAXOL 0.005 μM 72 hr): 50%
- inhibition at 0.005 µM ([3]; Homo sapiens, TOV112D, read-out: proliferation inhibition): 89%
- TOV-112D cell proliferation inhibition ([3]; TAXOL 1 nM, after 72 hours): did not significantly inhibit
- IC50 (human ovarian cancer): ≤ 3000 nM
- TOV-112D colony formation (TOV-112D cells [8]; TAXOL 5 nM): completely preventing
- reduced colony formation by (TOV-112D cells [8]; TOV-112D, TAXOL 1 nM alone, non-significant): 20%
- reduced ID8 colony formation by (ID8 cells [9]; TAXOL 5 nM): 56% and 57%
- reduced ID8 colony formation by (ID8 cells [9]; TAXOL 15 nM): 94%
- inhibition at 0.005 µM ([10]; Mus musculus, ID8, read-out: proliferation inhibition): 50%
